Results from US20240082125A1, “USE OF A SHORT CHAIN FATTY ACID AS ANTIDANDRUFF AGENT” (NANYANG TECHNOLOGICAL UNIVERSITY, priority 2020, published 2024).
Several values for one entry are separate records, joined by “and”; a condition that tells them apart may be missing. Equal values may be shown once.

Assays:
[1] = tested on: M. restricta ATCC MYA-4611; assay: M. restricta growth assay, total cell numbers by SYTO9 fluorescence; format: cell-based, Malassezia restricta
Method: (§1) M. restricta ATCC MYA-4611, S. epidermidis ATCC 12228, and C. acnes ATCC 6919 were purchased from ATCC. M. restricta was routinely cultured in modified Dixon (MD) medium (pH 6), composed of 36 g of Malt extract (Sigma 70167), 20 g of Dessicated Oxbile (Sigma 70168), 6 g of Bacto™ Peptone (BD 211677), 1% (v/v) Tween 40 (Sigma P1504), 0.2% (v/v) Oleic Acid (Fluka 75096), and 0.2% (v/v) Glycerol (Promega H5433) in 1 liter of dH2O. C. acnes and S. epidermidis were cultured in modified brain heart infusion (MBHI) medium (pH 7), containing 37 g of BHI base (Accumedia 7116B), 0.4% (v/v) of Tween-40 (Sigma P1504), 0.2% (v/v) of Oleic acid (Fluka 75096), and 0.2% (v/v) of Glycerol (Promega H5433) in 1 liter of dH2O. M. restricta and S. epidermidis were routinely grown under aerobic conditions, shaken at 200 rpm, and C. acnes was grown under anaerobic conditions. All organisms were grown at 33° C. Wherever required, media was supplemented with: sodium acetate (CH3COOH, Sigma Ref. 32319), sodium propionate ([…], Sigma Ref. P1880), sodium butyrate (CH3(CH2)2COOH, Sigma Ref. 303410), valeric acid (CH3(CH2)3COOH, Fluka Ref. 75054). For valeric acid, the pH in modified cell media was neutralized with NaOH (Sodium hydroxide, Sigma 283060).
M. restricta cells from 1 ml of the culture were harvested by centrifugation at 10,000×g for 5 minutes at room temperature. Cells were washed once, pelleted, and re-suspended in 0.9% NaCl solution. Equal volumes of the above cell suspension and SYTO 9 working stock (3 ul SYTO 9 component of the Live/Dead BacLight bacterial viability kit, ThermoFisher Scientific, L7012, diluted in 1 ml of 0.9% NaCl solution) were mixed well, incubated in dark for 10 minutes, and fluorescent intensity unit was measured in a Tecan microplate reader with excitation/emission wavelengths of 485/530 nm. A standard for correlation of fluorescence units and concentration was prepared using a fluorimeter and hemocytometer under a light microscope. This standard curve was used to calculate the total cell numbers.
(§2) M. restricta cells stored as glycerol stocks (30% glycerol in MD medium) were revived by plating on MD agar plates and incubated for 2-3 days at 33° C. A pre-culture was made from the lawn of cells grown on the agar plate. Cells from % of the plate was scrapped off, homogenized after suspending in 70 ml of MD medium in a 250 ml baffled erlenmeyer flask and incubated for 24 hours at 33° C. at 200 rpm. For experiments, 10^7 cell/ml was inoculated in fresh MD medium with or without the short chain fatty acids. Growth was monitored by measuring the cell density with SYTO 9 for up to 24 hours or 96 hours. C. acnes and S. epidermidis were inoculated into MBHI medium at starting cell density of OD600 0.05 and 0.25, respectively. Bacterial growth was measured by plating the serially diluted cultures on Brain Heart Infusion agar plates at different time points and colonies were counted after 72 hours for C. acnes and 24 hours for S. epidermidis.
M. restricta ATCC MYA-4611, S. epidermidis ATCC 12228 and C. acnes ATCC 6919 were purchased from ATCC. M. restricta were routinely cultured in Modified Dixon (MD) medium (pH 6), composed of 36 g of Malt extract (Sigma 70167), 20 g of Dessicated Oxbile (Sigma 70168), 6 g of Bacto™ Peptone (BD 211677), 1% (v/v) Tween 40 (Sigma P1504), 0.2% (v/v) Oleic Acid (Fluka 75096), and 0.2% (v/v) Glycerol (Promega H5433) in 1 liter of dH2O. C. acnes and S. epidermidis were cultured in modified brain heart infusion (MBHI) medium (pH 7), containing 37 g of BHI base (Accumedia 7116B), 0.4% (v/v) of Tween-40 (Sigma P1504), 0.2% (v/v) of Oleic acid (Fluka 75096), and 0.2% (v/v) of Glycerol (Promega H5433) in 1 liter of dH2O. M. restricta and S. epidermidis were routinely grown under aerobic conditions, shaken at 200 rpm, and C. acnes was grown under anaerobic conditions. All organisms were grown at 33° C.

[2] = tested on: S. epidermidis ATCC 12228; assay: S. epidermidis growth assay, colony forming units; format: cell-based, Staphylococcus epidermidis
Method: as §1, §2
(§3) Bacterial growth was quantified by plating the serially diluted cultures on Brain Heart Infusion agar plates at different time points and colonies were counted after 72 hours for C. acnes and 24 hours for Staphylococcus sp.
(§4) M. restricta ATCC MYA-4611, S. epidermidis ATCC 12228 and C. acnes ATCC 6919 were purchased from ATCC. M. restricta were routinely cultured in Modified Dixon (MD) medium (pH 6), composed of 36 g of Malt extract (Sigma 70167), 20 g of Dessicated Oxbile (Sigma 70168), 6 g of Bacto™ Peptone (BD 211677), 1% (v/v) Tween 40 (Sigma P1504), 0.2% (v/v) Oleic Acid (Fluka 75096), and 0.2% (v/v) Glycerol (Promega H5433) in 1 liter of dH2O. C. acnes and S. epidermidis were cultured in modified brain heart infusion (MBHI) medium (pH 7), containing 37 g of BHI base (Accumedia 7116B), 0.4% (v/v) of Tween-40 (Sigma P1504), 0.2% (v/v) of Oleic acid (Fluka 75096), and 0.2% (v/v) of Glycerol (Promega H5433) in 1 liter of dH2O. M. restricta and S. epidermidis were routinely grown under aerobic conditions, shaken at 200 rpm, and C. acnes was grown under anaerobic conditions. All organisms were grown at 33° C. Wherever required, media was supplemented with 50 mM of: sodium propionate ([…], Sigma Ref. P1880), sodium butyrate (CH3(CH2)2COOH, Sigma Ref. 303410), valeric acid (CH3(CH2)3COOH, Fluka Ref. 75054). For valeric acid, the pH in modified cell media was neutralized with NaOH (Sodium hydroxide, Sigma 283060).
(§5) M. restricta cells stored as glycerol stocks (30% glycerol in MD medium) were revived by plating on MD agar plates and incubated for 2-3 days at 33° C. A pre-culture was made from the lawn of cells grown on the agar plate.

C. acnes ATCC 6919 [3] = assay: C. acnes growth assay, colony forming units; format: cell-based, Cutibacterium acnes
Method: as §1, §2, §3, §4, §5

C. acnes ATCC 6919 [4] = assay: Co-culture assay: C. acnes growth with S. epidermidis biofilm in aerobic condition; format: cell-based, Cutibacterium acnes; conditions: monitored 24, 48 and 72 hours, FIG. 8
Method: S. epidermidis ATCC 12228, and C. acnes ATCC 6919 were purchased from ATCC. C. acnes and S. epidermidis were cultured in modified brain heart infusion (MBHI) medium (pH 7), containing 37 g of BHI base (Accumedia 7116B), 0.4% (v/v) of Tween-40 (Sigma P1504), 0.2% (v/v) of Oleic acid (Fluka 75096), and 0.2% (v/v) of Glycerol (Promega H5433) in 1 liter of dH2O. S. epidermidis was routinely grown under aerobic conditions, shaken at 200 rpm, and C. acnes was grown under anaerobic conditions. All organisms were grown at 33° C. Wherever required, media was supplemented with: sodium propionate ([…], Sigma Ref. P1880),
C. acnes and S. epidermidis were inoculated in MBHI media at starting cell density of OD600 0.05 and 0.25 respectively. Bacterial growth was measured by plating the serially diluted cultures on Brain Heart Infusion agar plates at different time points and colonies were counted after 72 hours for C. acnes and 24 hours for S. epidermidis.
For co-cultures, equal volumes of exponentially growing cells of the two species were mixed at cell density of 10^5 cells per ml in 24-well glass bottom plates. Growth of each species in co-cultures was quantified by plating the culture suspension on agar medium. […]

For `CCC(=O)[O-].[Na+]` [NaP, sodium propionate], the “growth of Malassezia restricta” value ([1]; 30 mM, MD medium pH 6, FIG. 1) was “completely inhibit”, the “M. restricta (log10 total cell counts)” value ([1]; 50 mM, after 72 hours, SYTO9, starting density 1×10^7 cells/ml, replicates #1-#3) was 6.95 log10 total cell counts and 6.79 log10 total cell counts and 6.82 log10 total cell counts and the “growth of S. epidermidis” value ([2]; 30 mM, MBHI medium pH 7, aerobic, FIG. 3) was “do not affect”. For the same molecule, the “S. epidermidis (log10 CFUs/ml)” value ([2]; 50 mM, after 24 hours, replicates #1-#3) was 9.16 log10 CFUs/ml and 8.82 log10 CFUs/ml and 9.00 log10 CFUs/ml, the “growth of C. acnes” value (C. acnes ATCC 6919 [3]; 30 mM, MBHI medium pH 7, anaerobic, FIG. 2) was “do not affect” and the “C. acnes (log10 CFUs/ml)” value (C. acnes ATCC 6919 [3]; 50 mM, after 72 hours, replicates #1-#3) was 7.82 log10 CFUs/ml and 8.34 log10 CFUs/ml and 8.29 log10 CFUs/ml. The “C. acnes growth in co-culture with S. epidermidis” value (C. acnes ATCC 6919 [4]) was “augmented”.
